Measurements taken from patent publication US10308639B2, “Phosphatidylinositol 3-kinase inhibitors” (Gilead Sciences, Inc., priority 2014, dated 2019).

Legend:
Format in all cases: biochemical
PI3Kγ = molecular target: T1, PI3Kγ (Homo sapiens, UniProt P48736); assay: TR-FRET enzymatic activity assay, PI3Kγ; conditions: Table 2a; same assay; read-out: PI3Kγ IC50
T1 construct: made in house
Summary of the method: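 Read-out is TR-FRET. The assay scores enzymatic activity of the individual PI3K isoforms in the presence of compound.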

PI3Kδ = molecular target: T2, PI3Kδ (Homo sapiens, UniProt O00329); assay: TR-FRET enzymatic activity assay, PI3Kδ; conditions: Table 2a; same assay
T2 construct: made in house
T2 sequence (O00329 whole entry): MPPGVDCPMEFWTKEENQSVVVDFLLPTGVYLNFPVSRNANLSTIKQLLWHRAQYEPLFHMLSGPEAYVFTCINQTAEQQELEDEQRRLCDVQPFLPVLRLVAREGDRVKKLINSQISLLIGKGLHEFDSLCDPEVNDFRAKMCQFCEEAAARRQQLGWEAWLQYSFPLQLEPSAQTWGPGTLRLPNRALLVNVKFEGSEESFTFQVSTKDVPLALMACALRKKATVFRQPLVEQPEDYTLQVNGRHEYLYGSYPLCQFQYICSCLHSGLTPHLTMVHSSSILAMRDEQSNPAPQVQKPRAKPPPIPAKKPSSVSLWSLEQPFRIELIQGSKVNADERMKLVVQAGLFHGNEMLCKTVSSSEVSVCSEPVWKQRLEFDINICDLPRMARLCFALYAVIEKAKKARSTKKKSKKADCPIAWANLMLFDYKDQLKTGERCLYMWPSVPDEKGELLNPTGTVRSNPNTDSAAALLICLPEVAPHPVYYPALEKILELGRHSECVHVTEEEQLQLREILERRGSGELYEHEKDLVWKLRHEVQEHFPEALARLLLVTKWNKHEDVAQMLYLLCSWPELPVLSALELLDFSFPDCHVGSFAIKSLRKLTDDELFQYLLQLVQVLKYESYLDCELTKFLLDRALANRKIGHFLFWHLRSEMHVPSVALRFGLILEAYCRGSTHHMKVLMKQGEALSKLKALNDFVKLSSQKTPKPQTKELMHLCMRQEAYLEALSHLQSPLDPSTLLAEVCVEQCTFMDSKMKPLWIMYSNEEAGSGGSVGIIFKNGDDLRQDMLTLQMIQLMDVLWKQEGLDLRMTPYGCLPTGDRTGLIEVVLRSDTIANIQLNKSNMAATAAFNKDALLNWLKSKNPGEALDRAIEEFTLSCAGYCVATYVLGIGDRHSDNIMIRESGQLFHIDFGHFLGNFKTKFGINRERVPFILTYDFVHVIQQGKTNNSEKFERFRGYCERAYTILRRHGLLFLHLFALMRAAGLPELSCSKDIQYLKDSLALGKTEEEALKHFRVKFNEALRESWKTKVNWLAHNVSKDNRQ
T2 sequence (P27986 whole entry partner): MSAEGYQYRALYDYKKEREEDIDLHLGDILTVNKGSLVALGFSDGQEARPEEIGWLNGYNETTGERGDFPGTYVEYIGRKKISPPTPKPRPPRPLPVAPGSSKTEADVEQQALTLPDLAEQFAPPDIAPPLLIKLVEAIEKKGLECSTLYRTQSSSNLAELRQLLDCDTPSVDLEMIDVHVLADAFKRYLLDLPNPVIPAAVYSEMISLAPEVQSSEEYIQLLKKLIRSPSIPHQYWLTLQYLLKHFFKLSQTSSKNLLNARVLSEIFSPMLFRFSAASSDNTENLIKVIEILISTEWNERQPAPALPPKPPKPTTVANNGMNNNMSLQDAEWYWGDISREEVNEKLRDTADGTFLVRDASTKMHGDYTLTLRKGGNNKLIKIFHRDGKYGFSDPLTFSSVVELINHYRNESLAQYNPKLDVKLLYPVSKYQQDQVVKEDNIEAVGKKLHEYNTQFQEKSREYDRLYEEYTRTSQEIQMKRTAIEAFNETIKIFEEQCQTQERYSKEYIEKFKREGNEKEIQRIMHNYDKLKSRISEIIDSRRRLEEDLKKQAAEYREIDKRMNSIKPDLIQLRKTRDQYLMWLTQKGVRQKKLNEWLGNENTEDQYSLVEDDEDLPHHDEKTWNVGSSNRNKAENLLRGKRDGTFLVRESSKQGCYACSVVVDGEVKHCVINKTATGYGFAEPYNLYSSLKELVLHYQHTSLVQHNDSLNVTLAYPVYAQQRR

PI3Kβ = molecular target: T3, PI3Kβ (Homo sapiens, UniProt P42338); assay: TR-FRET enzymatic activity assay, PI3Kβ; conditions: Table 2a; same assay
T3 construct: made in house
T3 sequence (P42338 whole entry): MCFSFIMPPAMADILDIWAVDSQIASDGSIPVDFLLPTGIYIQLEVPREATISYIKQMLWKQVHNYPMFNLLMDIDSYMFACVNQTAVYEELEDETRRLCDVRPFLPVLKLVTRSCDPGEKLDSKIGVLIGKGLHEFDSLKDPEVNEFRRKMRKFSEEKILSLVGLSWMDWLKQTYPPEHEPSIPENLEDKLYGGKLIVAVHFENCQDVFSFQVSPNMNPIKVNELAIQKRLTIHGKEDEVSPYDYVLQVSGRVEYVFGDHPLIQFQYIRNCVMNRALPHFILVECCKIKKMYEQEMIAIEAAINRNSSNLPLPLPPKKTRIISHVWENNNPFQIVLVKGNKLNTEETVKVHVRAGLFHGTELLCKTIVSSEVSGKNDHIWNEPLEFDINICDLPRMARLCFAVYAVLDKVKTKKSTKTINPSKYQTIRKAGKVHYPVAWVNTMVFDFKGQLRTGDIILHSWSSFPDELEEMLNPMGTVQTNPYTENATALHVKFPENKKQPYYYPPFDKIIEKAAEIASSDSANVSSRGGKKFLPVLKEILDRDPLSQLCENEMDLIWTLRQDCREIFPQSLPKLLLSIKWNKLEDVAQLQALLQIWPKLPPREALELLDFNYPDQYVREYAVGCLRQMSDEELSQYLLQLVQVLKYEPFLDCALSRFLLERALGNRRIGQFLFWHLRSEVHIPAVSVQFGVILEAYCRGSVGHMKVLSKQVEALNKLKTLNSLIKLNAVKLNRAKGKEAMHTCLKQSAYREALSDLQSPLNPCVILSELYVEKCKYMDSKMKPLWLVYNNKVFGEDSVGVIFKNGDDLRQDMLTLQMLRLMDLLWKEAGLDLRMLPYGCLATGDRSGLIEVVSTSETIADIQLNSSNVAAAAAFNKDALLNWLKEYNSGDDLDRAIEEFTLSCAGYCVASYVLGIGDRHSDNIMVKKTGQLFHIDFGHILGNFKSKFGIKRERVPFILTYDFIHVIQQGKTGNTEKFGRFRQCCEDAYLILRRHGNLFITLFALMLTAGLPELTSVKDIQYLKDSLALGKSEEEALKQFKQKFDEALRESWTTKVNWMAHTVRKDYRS
T3 sequence (P27986 whole entry partner): as the sequence (P27986 whole entry partner) above

T1 sequence (P48736 whole entry): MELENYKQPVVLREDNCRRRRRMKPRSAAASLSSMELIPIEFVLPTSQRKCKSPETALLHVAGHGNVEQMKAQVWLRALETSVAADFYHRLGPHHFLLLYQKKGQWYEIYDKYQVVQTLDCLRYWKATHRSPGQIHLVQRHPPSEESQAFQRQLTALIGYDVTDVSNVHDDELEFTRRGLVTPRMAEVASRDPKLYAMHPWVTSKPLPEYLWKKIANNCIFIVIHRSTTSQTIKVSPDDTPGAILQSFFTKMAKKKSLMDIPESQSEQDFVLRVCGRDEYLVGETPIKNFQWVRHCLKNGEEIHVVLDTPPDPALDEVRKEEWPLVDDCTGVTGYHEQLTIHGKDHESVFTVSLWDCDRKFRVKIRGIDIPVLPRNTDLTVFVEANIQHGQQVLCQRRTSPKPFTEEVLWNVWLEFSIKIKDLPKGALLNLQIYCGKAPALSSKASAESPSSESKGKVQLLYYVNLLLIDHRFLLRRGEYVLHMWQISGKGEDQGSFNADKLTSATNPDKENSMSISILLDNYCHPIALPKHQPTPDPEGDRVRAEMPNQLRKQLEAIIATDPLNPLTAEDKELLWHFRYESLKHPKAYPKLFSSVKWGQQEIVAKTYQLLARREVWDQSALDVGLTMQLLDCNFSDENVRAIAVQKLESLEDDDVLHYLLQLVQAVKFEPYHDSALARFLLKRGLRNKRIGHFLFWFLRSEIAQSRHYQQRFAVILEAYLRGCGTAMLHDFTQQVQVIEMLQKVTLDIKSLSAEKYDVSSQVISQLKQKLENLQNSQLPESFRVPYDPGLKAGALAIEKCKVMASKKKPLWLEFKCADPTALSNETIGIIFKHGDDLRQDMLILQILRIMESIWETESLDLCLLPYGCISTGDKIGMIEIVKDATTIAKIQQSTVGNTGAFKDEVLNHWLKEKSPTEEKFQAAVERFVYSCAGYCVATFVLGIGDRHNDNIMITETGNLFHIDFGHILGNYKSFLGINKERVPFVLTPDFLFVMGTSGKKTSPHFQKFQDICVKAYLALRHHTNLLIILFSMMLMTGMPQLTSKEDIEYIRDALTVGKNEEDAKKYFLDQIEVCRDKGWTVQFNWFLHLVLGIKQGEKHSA

SMILES | IC50 (PI3Kγ) | IC50 (PI3Kδ) | IC50 (PI3Kβ)
C[C@H](Nc1nc(N)nc(N)c1Cl)c1nc2cc(F)cc(Cl)c2c(=O)n1-c1cc[nH]n1 [Compound 238, (S)-5-chloro-2-(1-((2,6-diamino-5-chloropyrimidin-4-yl)amino)ethyl)-7-fluoro-3-(1H-pyrazol-3-yl)quinazolin-4(3H)-one] | > 10000 nM | 15 nM | 21 nM
N#Cc1c(N)nc(N)nc1N[C@H](c1nc2cc(F)cc(Cl)c2c(=O)n1-c1cc[nH]n1)C1CC1 [Compound 239, (S)-2,4-diamino-6-(((5-chloro-7-fluoro-4-oxo-3-(1H-pyrazol-3-yl)-3,4-dihydroquinazolin-2-yl)(cyclopropyl)methyl)amino)pyrimidine-5-carbonitrile] | 2700 nM | 4 nM | 3 nM
Nc1nc(N)c(Cl)c(N[C@H](c2nc3cc(F)cc(Cl)c3c(=O)n2-c2cc[nH]n2)C2CC2)n1 [Compound 240, (S)-5-chloro-2-(cyclopropyl((2,6-diamino-5-chloropyrimidin-4-yl)amino)methyl)-7-fluoro-3-(1H-pyrazol-3-yl)quinazolin-4(3H)-one] | > 10000 nM | 42 nM | 99 nM
Cc1c[nH]nc1-n1c([C@@H](Nc2nc(N)nc(N)c2C#N)C2CC2)nc2c(C#N)cccc2c1=O [Compound 241, (S)-2-(cyclopropyl((2,6-diamino-5-cyanopyrimidin-4-yl)amino)methyl)-3-(4-methyl-1H-pyrazol-3-yl)-4-oxo-3,4-dihydroquinazoline-8-carbonitrile] | > 10000 nM | 7 nM | 93 nM
Cc1c[nH]nc1-n1c([C@@H](Nc2nc(N)nc(Cl)c2C#N)C2CC2)nc2cccc(Cl)c2c1=O [Compound 243, (S)-2-amino-4-chloro-6-(((5-chloro-3-(4-methyl-1H-pyrazol-3-yl)-4-oxo-3,4-dihydroquinazolin-2-yl)(cyclopropyl)methyl)amino)pyrimidine-5-carbonitrile] | 3100 nM | 34 nM | 200 nM
Cc1c[nH]nc1-n1c([C@@H](Nc2nc(N)nc(Cl)c2C#N)C2CC2)nc2c(C#N)cccc2c1=O [Compound 246, (S)-2-(((2-amino-6-chloro-5-cyanopyrimidin-4-yl)amino)(cyclopropyl)methyl)-3-(4-methyl-1H-pyrazol-3-yl)-4-oxo-3,4-dihydroquinazoline-8-carbonitrile] | > 10000 nM | 36 nM | 320 nM
Cc1c[nH]nc1-n1c([C@@H](Nc2nc(N)nc(N)c2Cl)C2CC2)nc2cccc(Cl)c2c1=O [Compound 248, (S)-5-chloro-2-(cyclopropyl((2,6-diamino-5-chloropyrimidin-4-yl)amino)methyl)-3-(4-methyl-1H-pyrazol-3-yl)quinazolin-4(3H)-one] | 8600 nM | 45 nM | 650 nM
CCC[C@H](Nc1nc(N)nc(N)c1Cl)c1nc2cccc(Cl)c2c(=O)n1-c1cn[nH]c1 [Compound 250, (S)-5-chloro-2-(1-((2,6-diamino-5-chloropyrimidin-4-yl)amino)butyl)-3-(1H-pyrazol-4-yl)quinazolin-4(3H)-one] | 2020 nM | 23 nM | 160 nM
CCC[C@H](Nc1nc(N)nc(N)c1Cl)c1nc2c(Cl)ccc(Cl)c2c(=O)n1-c1cn[nH]c1 [Compound 252, (S)-5,8-dichloro-2-(1-((2,6-diamino-5-chloropyrimidin-4-yl)amino)butyl)-3-(1H-pyrazol-4-yl)quinazolin-4(3H)-one] | > 10000 nM | 75 nM | 920 nM
CCC[C@H](Nc1nc(N)nc(N)c1Cl)c1nc2c(Cl)ccc(Cl)c2c(=O)n1-c1cc[nH]n1 [Compound 255, (S)-5,8-dichloro-2-(1-((2,6-diamino-5-chloropyrimidin-4-yl)amino)butyl)-3-(1H-pyrazol-3-yl)quinazolin-4(3H)-one] | > 10000 nM | 30 nM | 150 nM
CC[C@H](Nc1nc(N)nc(N)c1C#N)c1nc2c(Cl)cc(F)cc2c(=O)n1-c1cc[nH]n1 [Compound 258, (S)-2,4-diamino-6-((1-(8-chloro-6-fluoro-4-oxo-3-(1H-pyrazol-3-yl)-3,4-dihydroquinazolin-2-yl)propyl)amino)pyrimidine-5-carbonitrile] | 3900 nM | 3 nM | 7 nM
C[C@H](Nc1nc(N)nc(N)c1Cl)c1nc2ccc(F)c(Cl)c2c(=O)n1-c1cc[nH]n1 [Compound 259, (S)-5-chloro-2-(1-((2,6-diamino-5-chloropyrimidin-4-yl)amino)ethyl)-6-fluoro-3-(1H-pyrazol-3-yl)quinazolin-4(3H)-one] | 3500 nM | 6 nM | 21 nM
Nc1nc(N)c(Cl)c(N[C@H](c2nc3ccc(F)c(Cl)c3c(=O)n2-c2cc[nH]n2)C2CC2)n1 [Compound 261, (S)-5-chloro-2-(cyclopropyl((2,6-diamino-5-chloropyrimidin-4-yl)amino)methyl)-6-fluoro-3-(1H-pyrazol-3-yl)quinazolin-4(3H)-one] | 5200 nM | 12 nM | 49 nM
C[C@H](Nc1nc(N)nc(N)c1Cl)c1nc2ccc(F)c(Cl)c2c(=O)n1-c1cn[nH]c1 [Compound 263, (S)-5-chloro-2-(1-((2,6-diamino-5-chloropyrimidin-4-yl)amino)ethyl)-6-fluoro-3-(1H-pyrazol-4-yl)quinazolin-4(3H)-one] | 1200 nM | 20 nM | 190 nM
C[C@H](Nc1nc(N)nc(N)c1Cl)c1nc2c(Cl)cc(F)cc2c(=O)n1-c1cn[nH]c1 [Compound 265, (S)-8-chloro-2-(1-((2,6-diamino-5-chloropyrimidin-4-yl)amino)ethyl)-6-fluoro-3-(1H-pyrazol-4-yl)quinazolin-4(3H)-one] | 3100 nM | 31 nM | 180 nM

Continued, values first:

IC50 (PI3Kγ) | IC50 (PI3Kδ) | IC50 (PI3Kβ) | SMILES
960 nM | 8 nM | 31 nM | Cc1c[nH]nc1-n1c([C@@H](Nc2nc(N)nc(C)c2C#N)C2CC2)nc2cccc(Cl)c2c1=O [Compound 244, (S)-2-amino-4-(((5-chloro-3-(4-methyl-1H-pyrazol-3-yl)-4-oxo-3,4-dihydroquinazolin-2-yl)(cyclopropyl)methyl)amino)-6-methylpyrimidine-5-carbonitrile]
370 nM | 6 nM | 4 nM | CC[C@H](Nc1nc(N)nc(N)c1C#N)c1nc2cccc(C3CC3)c2c(=O)n1-c1cc[nH]n1 [Compound 245, (S)-2,4-diamino-6-((1-(5-cyclopropyl-4-oxo-3-(1H-pyrazol-3-yl)-3,4-dihydroquinazolin-2-yl)propyl)amino)pyrimidine-5-carbonitrile]
730 nM | 4 nM | 70 nM | Cc1c[nH]nc1-n1c([C@@H](Nc2nc(N)nc(N)c2C#N)C2CC2)nc2cccc(Cl)c2c1=O [Compound 247, (S)-2,4-diamino-6-(((5-chloro-3-(4-methyl-1H-pyrazol-3-yl)-4-oxo-3,4-dihydroquinazolin-2-yl)(cyclopropyl)methyl)amino)pyrimidine-5-carbonitrile]
160 nM | 1 nM | 3 nM | CCC[C@H](Nc1nc(N)nc(N)c1C#N)c1nc2cccc(Cl)c2c(=O)n1-c1cn[nH]c1 [Compound 249, (S)-2,4-diamino-6-((1-(5-chloro-4-oxo-3-(1H-pyrazol-4-yl)-3,4-dihydroquinazolin-2-yl)butyl)amino)pyrimidine-5-carbonitrile]
770 nM | 2 nM | 10 nM | CCC[C@H](Nc1nc(N)nc(N)c1C#N)c1nc2c(Cl)ccc(Cl)c2c(=O)n1-c1cn[nH]c1 [Compound 251, (S)-2,4-diamino-6-((1-(5,8-dichloro-4-oxo-3-(1H-pyrazol-4-yl)-3,4-dihydroquinazolin-2-yl)butyl)amino)pyrimidine-5-carbonitrile]
320 nM | 1 nM | 4 nM | CCC[C@H](Nc1nc(N)nc(N)c1C#N)c1nc2cccc(Cl)c2c(=O)n1-c1cc[nH]n1 [Compound 253, (S)-2,4-diamino-6-((1-(5-chloro-4-oxo-3-(1H-pyrazol-3-yl)-3,4-dihydroquinazolin-2-yl)butyl)amino)pyrimidine-5-carbonitrile]
1400 nM | 2 nM | 2 nM | CCC[C@H](Nc1nc(N)nc(N)c1C#N)c1nc2c(Cl)ccc(Cl)c2c(=O)n1-c1cc[nH]n1 [Compound 254, (S)-2,4-diamino-6-((1-(5,8-dichloro-4-oxo-3-(1H-pyrazol-3-yl)-3,4-dihydroquinazolin-2-yl)butyl)amino)pyrimidine-5-carbonitrile]
220 nM | 0.7 nM | 2 nM | C[C@H](Nc1nc(N)nc(N)c1C#N)c1nc2ccc(F)c(Cl)c2c(=O)n1-c1cc[nH]n1 [Compound 260, (S)-2,4-diamino-6-((1-(5-chloro-6-fluoro-4-oxo-3-(1H-pyrazol-3-yl)-3,4-dihydroquinazolin-2-yl)ethyl)amino)pyrimidine-5-carbonitrile]
405 nM | 1 nM | 5 nM | N#Cc1c(N)nc(N)nc1N[C@H](c1nc2ccc(F)c(Cl)c2c(=O)n1-c1cc[nH]n1)C1CC1 [Compound 262, (S)-2,4-diamino-6-(((5-chloro-6-fluoro-4-oxo-3-(1H-pyrazol-3-yl)-3,4-dihydroquinazolin-2-yl)(cyclopropyl)methyl)amino)pyrimidine-5-carbonitrile]
71 nM | 2 nM | 8 nM | C[C@H](Nc1nc(N)nc(N)c1C#N)c1nc2ccc(F)c(Cl)c2c(=O)n1-c1cn[nH]c1 [Compound 264, (S)-2,4-diamino-6-((1-(5-chloro-6-fluoro-4-oxo-3-(1H-pyrazol-4-yl)-3,4-dihydroquinazolin-2-yl)ethyl)amino)pyrimidine-5-carbonitrile]
